Where a SMILES comes first, the peptide text is derived from it. [ ]: non-standard residue; d: D form. Orn = NCCC[C@H](N)C(=O)O
Assays:
E. coli DC2 = format: cell-based, Escherichia coli; details: E. coli DC2; unit from Table 10
Outline: (§1)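 Broth microdilution in LB: overnight 37 °C cultures were diluted and added to serial peptide dilutions at a final 5×10^5 CFU/mL, then incubated overnight at 37 °C. MIC (μg/ml) is the lowest concentration inhibiting growth. Strains include E. faecalis ATCC 29212 and P. aeruginosa H188, the antibiotic-sensitive derivative of H187.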

E. coli UB1005 = format: cell-based, Escherichia coli; details: E. coli UB1005; unit from Table 10
Outline: (§2)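 Antimicrobial activity is measured by a liquid-broth assay in LB at 37 °C overnight, starting from 5×10^5 CFU/mL. Values are minimal inhibitory concentrations, i.e. the lowest concentration that stops growth.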

[1] = tested on: gram positive microorganisms; format: cell-based; details: average activity calculated from Table II
Source text: (§3) The following bacterial strains were utilized: Escherichia coli UB1005 (wt) and its antibiotic supersusceptible derivative DC2 (Clark, 1984); Excherichia coli SC9251 and its polymixin B rasistant mutant pmrA SC9252 (Peterson, et al., 1987) Pseudomonas aeruginosa H187 (wt) (Angus, et al., 1987) and its antibiotic-sensitive derivative H188 (Zimmerman, W, Antimicrob. Agents Chemother. 18: 94-100, 1980); methicillin sensitive Staphylococcus aureus K147 (Kreiswirth, et al., 1983); Staphylococcus aureus SAP0017, a methicillin resistant clinical isolate from Dr. A. Chow (University of British Columia); Bacillus subtilis, an environmental wt lab strain. Enterococcus faecalis are ATCC 29212 cells and Staphylococcus epidermidis was a clinical isolate from Dr. D. Speert (University of British Columbia). Antifungal activity was tested using a clinical lab isolate of Candida albicans. Salmonella typhinurium C57 and C610 (Fields, P.I., et al., Science 243: 1059-1062 (1989) Corynebacterium xerosis was an environmental isolate (University of British Columbia).
(§4) It is now apparent that agar-based assays severely underestimate antifungal activity as well as activity against gram negative microorganisms (Kondejewski, et al., 1996). Consequently, in the studies reported herein, a liquid-broth method was used to measure the antibiotic properties of the peptides. […] Briefly, cells were grown overnight at 37° C. in LB and diluted in the same medium. Serial dilutions of antibiotics were added to the microtitre plates in a volume of 100 μL followed by 10 μL of bacteria to give a final inoculum of 5×10^5 CFU/mL. Plates were incubated at 37° C. overnight and MICs determined as the lowest antibiotic concentration that inhibited growth.
(§5) The results from antimicrobial and hemolytic assays are combined to provide a “Therapeutic Index” (TI) for each peptide with respect to individual microorganisms. As reported herein, the TI is calculated as the hemolytic activity divided by the antimicrobial activity. The TI thus is a measure of specificity of the particular peptide for microbial membranes as opposed to human blood cell membranes. In the present studies, antimicrobial activities are reported as minimum inhibitory concentrations (MIC)—the lowest concentration of peptide (μg/ml) found to inhibit growth of the particular microbe. Hemolytic activity is reported as the concentration of peptide that effected complete lysis of blood cells after four hours. Thus, in the context of the present invention high TI values indicate microbial specificity and relative lack of toxicity.

[2] = tested on: gram negative microorganisms; format: cell-based; details: average activity calculated from Table II
Source text: as §3, §4, §5

yeast = assay: Antibiotic activity, yeast; format: cell-based; details: average activity calculated from Table II
Source text: as §3, §4, §5

[3] = Displacement of dansyl-polymyxin from LPS; format: binding, P. aeruginosa; details: for IC50: Table 10, read-out: LPS binding activity: peptide concentration to displace 50% of dansyl-polymyxin from LPS
Outline: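 Peptides titrated into 3 μg/mL P. aeruginosa LPS with 2.5 μM dansyl-polymyxin (~90% site saturation) in 5 mM sodium HEPES, pH 7.0; fluorescence decrease recorded. I50 (50% probe displacement) taken from the x-intercept of a double-reciprocal plot of percent inhibition versus inhibitor concentration.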

P. aeruginosa H188 = format: cell-based, Pseudomonas aeruginosa; details: P. aeruginosa H188; unit from Table 10
Outline: as §2

E. coli SC9252 = assay: MIC, liquid-broth microtitre dilution; format: cell-based, Escherichia coli; details: unit from Table 10
Source text: as §3, §4

E. coli SC9251 = assay: MIC, liquid-broth microtitre dilution; format: cell-based, Escherichia coli; details: unit from Table 10
Source text: as §3, §4

P. aeruginosa H187 = format: cell-based, Pseudomonas aeruginosa; details: P. aeruginosa H187; unit from Table 10
Outline: as §1

human erythrocytes = assay: Hemolytic activity; format: cell-based
Procedure: Serial dilutions of the peptides in saline were prepared in round bottom microtitre plates using 100 μL volumes. Red blood cells were diluted with saline to 1/25 packed volume of cells and 50 μL added to each well. Plates were incubated with rocking at 37° C., and the concentration required for complete lysis determined visually after 4 h.

Compound	Antibiotic activity (Table 11, ring analogs) (E. coli DC2)	Antibiotic activity (Table 11, ring analogs) (E. coli UB1005)	Antibiotic activity, gram-positive [1]	Antibiotic activity, gram-negative [2]	Antibiotic activity, yeast (yeast)	IC50 [3]	Increase in LPS binding activity in comparison to shorter peptides ([3]; addition of two positive charges)	Antibiotic activity (Table 11, ring analogs) (P. aeruginosa H188)	Antibiotic activity (Table 11, ring analogs) (E. coli SC9252)	Antibiotic activity (Table 11, ring analogs) (E. coli SC9251)	Antibiotic activity (Table 11, ring analogs) (P. aeruginosa H187)	Hemolytic activity (human erythrocytes)
CC(C)C[C@@H]1NC(=O)[C@H](CCCCN)NC(=O)[C@H](C(C)C)NC(=O)[C@@H]2CCCN2C(=O)[C@@H](Cc2ccc(O)cc2)NC(=O)[C@H](CC(C)C)NC(=O)[C@H](CCCCN)NC(=O)[C@H](C(C)C)NC(=O)[C@H](CCCCN)NC(=O)[C@@H]2CCCN2C(=O)[C@@H](Cc2ccc(O)cc2)NC(=O)[C@H](CCCCN)NC1=O [GS12]	11 μg/ml	25 μg/ml	240 µg/mL	32 µg/mL	42 µg/mL	46 µM	approximately 6 fold	10 μg/ml	30 μg/ml	42 μg/ml	75 μg/ml	250 µg/mL
CC(C)C[C@@H]1NC(=O)[C@H](CCCCN)NC(=O)[C@@H]2CCCN2C(=O)[C@@H](Cc2ccc(O)cc2)NC(=O)[C@H](CCCCN)NC(=O)[C@H](C(C)C)NC(=O)[C@H](CCCCN)NC(=O)[C@H](CC(C)C)NC(=O)[C@@H]2CCCN2C(=O)[C@@H](Cc2ccc(O)cc2)NC(=O)[C@H](C(C)C)NC(=O)[C@H](CCCCN)NC1=O [GS12LV]	14 μg/ml	21 μg/ml	240 µg/mL	25 µg/mL	50 µg/mL	33 µM	–	10 μg/ml	25 μg/ml	22 μg/ml	58 μg/ml	92 µg/mL
CC(C)C[C@@H]1NC(=O)[C@H](CCCN)NC(=O)[C@H](CC(C)C)NC(=O)[C@@H]2CCCN2C(=O)[C@@H](Cc2ccccc2)NC(=O)[C@H](CC(C)C)NC(=O)[C@H](CCCN)NC(=O)[C@H](CC(C)C)NC(=O)[C@H](CCCN)NC(=O)[C@@H]2CCCN2C(=O)[C@@H](Cc2ccccc2)NC(=O)[C@H](CCCN)NC1=O [GS12FO/LL, FPLOLOFPOLOL] (cyclo(L[Orn]L[Orn][dF]P[Orn]L[Orn]L[dF]P))	5 μg/ml	16 μg/ml	42 µg/mL	18 µg/mL	16 µg/mL	44 µM	–	8 μg/ml	9 μg/ml	8 μg/ml	63 μg/ml	170 µg/mL
CC(C)C[C@@H]1NC(=O)[C@H](CCCN)NC(=O)[C@H](C(C)C)NC(=O)[C@@H]2CCCN2C(=O)[C@@H](Cc2ccccc2)NC(=O)[C@H](CC(C)C)NC(=O)[C@H](CCCN)NC(=O)[C@H](C(C)C)NC(=O)[C@H](CCCN)NC(=O)[C@@H]2CCCN2C(=O)[C@@H](Cc2ccccc2)NC(=O)[C@H](CCCN)NC1=O [GS12FO, FPVOLOFPOVOL] (cyclo(L[Orn][dF]P[Orn]V[Orn]L[dF]PV[Orn]))	5 μg/ml	22 μg/ml	120 µg/mL	16 µg/mL	16 µg/mL	105 µM	–	5 μg/ml	9 μg/ml	6 μg/ml	50 μg/ml	160 µg/mL
CC(C)C[C@@H]1NC(=O)[C@H](CCCCN)NC(=O)[C@H](C(C)C)NC(=O)[C@@H]2CCCN2C(=O)[C@@H](Cc2ccccc2)NC(=O)[C@H](CC(C)C)NC(=O)[C@H](CCCCN)NC(=O)[C@H](C(C)C)NC(=O)[C@H](CCCCN)NC(=O)[C@@H]2CCCN2C(=O)[C@@H](Cc2ccccc2)NC(=O)[C@H](CCCCN)NC1=O [GS12F]	9 μg/ml	17 μg/ml	110 µg/mL	16 µg/mL	13 µg/mL	127 µM	–	8 μg/ml	14 μg/ml	11 μg/ml	38 μg/ml	400 µg/mL

From patent US6358921B1, “Antimicrobial peptide compositions and method” (priority 1996, dated 2002)
